Values after ≈ are worked out from the molar mass of the structure shown. Where a SMILES comes first, the peptide text is derived from it. Bridges are numbered along the chain shown (N, C = ends). Roman numbers before positions name the chains, in order. Side-chain parts run from the residue outwards. The star is where a group is joined. LeuLys(Leu) = CC(C)C[C@H](N)C(=O)NCCCC[C@H](NC(=O)[C@@H](N)CC(C)C)C(=O)*; X2 = CC[C@H](C)[C@H](N)C(=O)NCCCC[C@H](NC(=O)[C@@H](N)[C@@H](C)CC)C(=O)*; X4 = C[C@H](N)C(=O)NCCCC[C@H](NC(=O)[C@H](C)N)C(=O)*
Tests used:
Pseudomonas aeruginosa [1] = assay: Antibacterial activity against Pseudomonas aeruginosa PAO1 after 18 to 24 hrs by broth microdilution assay; format: functional
Escherichia coli [2] = assay: Antibacterial activity against Escherichia coli DH5[alpha] after 18 to 24 hrs by broth microdilution assay; format: functional
[3] = Hemolytic activity in human RBC after 4 hrs; format: ADME, cell-based; settings: erythrocyte
Bacillus subtilis = assay: Antibacterial activity against Bacillus subtilis BR151 after 18 to 24 hrs by broth microdilution assay; format: functional
Staphylococcus aureus [4] = assay: Antibacterial activity against methicillin-resistant Staphylococcus aureus 42080 by broth microdilution assay; format: functional
Enterococcus faecalis [5] = assay: Antibacterial activity against Enterococcus faecalis Van BE80-8 by broth microdilution assay; format: functional
Enterococcus faecalis [6] = assay: Antibacterial activity against Enterococcus faecalis ATCC 29212 by broth microdilution assay; format: functional
Pseudomonas aeruginosa [7] = assay: Antibacterial activity against Pseudomonas aeruginosa K799/WT by broth microdilution assay; format: functional
Pseudomonas aeruginosa [8] = assay: Antibacterial activity against Pseudomonas aeruginosa K799/61 by broth microdilution assay; format: functional
Escherichia coli [9] = assay: Antibacterial activity against Escherichia coli ATCC 25922 by broth microdilution assay; format: functional
Pseudomonas aeruginosa [10] = assay: Antibacterial activity against Pseudomonas aeruginosa ATCC 27853 by broth microdilution assay; format: functional
Pseudomonas aeruginosa [11] = assay: Antibacterial activity against Pseudomonas aeruginosa PAO1 HS by broth microdilution assay; format: functional
Staphylococcus aureus [12] = assay: Antibacterial activity against Staphylococcus aureus ATCC 29213 by broth microdilution assay; format: functional
Pseudomonas aeruginosa [13] = assay: Antibacterial activity against Pseudomonas aeruginosa 8S/H by broth microdilution assay; format: functional

MIC (Pseudomonas aeruginosa [1]) [µg/mL] | MIC (Escherichia coli [2]) [µg/mL] | MIC (Bacillus subtilis) [µg/mL] | SMILES | MHC [3] [µg/mL] | MIC (Staphylococcus aureus [4]) [µg/mL] | MIC (Enterococcus faecalis [5]) [µg/mL] | MIC (Enterococcus faecalis [6]) [µg/mL] | MIC (Pseudomonas aeruginosa [7]) [µg/mL] | MIC (Pseudomonas aeruginosa [8]) [µg/mL] | MIC (Escherichia coli [9]) [µg/mL] | MIC (Pseudomonas aeruginosa [10]) [µg/mL] | MIC (Pseudomonas aeruginosa [11]) [µg/mL] | MIC (Staphylococcus aureus [12]) [µg/mL] | MIC (Pseudomonas aeruginosa [13]) [µg/mL]
67 (≈ 28.4 µM) | > 100 | > 100 | CC(C)C[C@H](NC(=O)[C@H](CCCCNC(=O)[C@H](C)N)NC(=O)[C@H](C)N)C(=O)NCCCC[C@H](NC(=O)[C@H](CC(C)C)NC(=O)[C@H](CCCCNC(=O)[C@H](C)N)NC(=O)[C@H](C)N)C(=O)N[C@@H](Cc1ccccc1)C(=O)NCCCC[C@H](NC(=O)[C@H](Cc1ccccc1)NC(=O)[C@H](CCCCNC(=O)[C@H](CC(C)C)NC(=O)[C@H](CCCCNC(=O)[C@H](C)N)NC(=O)[C@H](C)N)NC(=O)[C@H](CC(C)C)NC(=O)[C@H](CCCCNC(=O)[C@H](C)N)NC(=O)[C@H](C)N)C(=O)N[C@@H](CCCCN)C(N)=O (I: H-AK(Ala)LK([Leu-X4])FKK-NH2 / II: H-AK(Ala)LK([Leu-X4])F; amide I:6-II:C) | 1000 |  |  |  |  |  |  |  |  |  | 
> 100 | > 100 | 67 (≈ 26.5 µM) | CC(C)C[C@H](N)C(=O)NCCCC[C@H](NC(=O)[C@@H](N)CC(C)C)C(=O)N[C@@H](C)C(=O)NCCCC[C@H](NC(=O)[C@H](C)NC(=O)[C@H](CCCCNC(=O)[C@@H](N)CC(C)C)NC(=O)[C@@H](N)CC(C)C)C(=O)N[C@@H](Cc1ccccc1)C(=O)NCCCC[C@H](NC(=O)[C@H](Cc1ccccc1)NC(=O)[C@H](CCCCNC(=O)[C@H](C)NC(=O)[C@H](CCCCNC(=O)[C@@H](N)CC(C)C)NC(=O)[C@@H](N)CC(C)C)NC(=O)[C@H](C)NC(=O)[C@H](CCCCNC(=O)[C@@H](N)CC(C)C)NC(=O)[C@@H](N)CC(C)C)C(=O)N[C@@H](CCCCN)C(N)=O (I: H-LK(Leu)AK([Ala-LeuLys(Leu)])FKK-NH2 / II: H-LK(Leu)AK([Ala-LeuLys(Leu)])F; amide I:6-II:C) | > 2000 |  |  |  |  |  |  |  |  |  | 
67 (≈ 26.4 µM) | > 100 | 4.5 (≈ 1.77 µM) | CC(C)C[C@H](NC(=O)[C@H](CCCCNC(=O)[C@@H](N)CC(C)C)NC(=O)[C@@H](N)CC(C)C)C(=O)NCCCC[C@H](NC(=O)[C@H](CC(C)C)NC(=O)[C@H](CCCCNC(=O)[C@@H](N)CC(C)C)NC(=O)[C@@H](N)CC(C)C)C(=O)N[C@@H](C)C(=O)NCCCC[C@H](NC(=O)[C@H](C)NC(=O)[C@H](CCCCNC(=O)[C@H](CC(C)C)NC(=O)[C@H](CCCCNC(=O)[C@@H](N)CC(C)C)NC(=O)[C@@H](N)CC(C)C)NC(=O)[C@H](CC(C)C)NC(=O)[C@H](CCCCNC(=O)[C@@H](N)CC(C)C)NC(=O)[C@@H](N)CC(C)C)C(=O)N[C@@H](CCCCN)C(N)=O (I: H-LK(Leu)LK([Leu-LeuLys(Leu)])AKK-NH2 / II: H-LK(Leu)LK([Leu-LeuLys(Leu)])A; amide I:6-II:C) | > 2000 |  |  |  |  |  |  |  |  |  | 
≥ 100 | 15 (≈ 5.69 µM) | 2 (≈ 0.758 µM) | CC(C)C[C@H](NC(=O)[C@H](CCCCNC(=O)[C@@H](N)CC(C)C)NC(=O)[C@@H](N)CC(C)C)C(=O)NCCCC[C@H](NC(=O)[C@H](CC(C)C)NC(=O)[C@H](CCCCNC(=O)[C@@H](N)CC(C)C)NC(=O)[C@@H](N)CC(C)C)C(=O)N[C@@H](Cc1ccccc1)C(=O)NCCCC[C@H](NC(=O)[C@H](Cc1ccccc1)NC(=O)[C@H](CCCCNC(=O)[C@H](CC(C)C)NC(=O)[C@H](CCCCNC(=O)[C@@H](N)CC(C)C)NC(=O)[C@@H](N)CC(C)C)NC(=O)[C@H](CC(C)C)NC(=O)[C@H](CCCCNC(=O)[C@@H](N)CC(C)C)NC(=O)[C@@H](N)CC(C)C)C(=O)N[C@@H](C)C(N)=O (I: H-LK(Leu)LK([Leu-LeuLys(Leu)])FKA-NH2 / II: H-LK(Leu)LK([Leu-LeuLys(Leu)])F; amide I:6-II:C) | 31 |  |  |  |  |  |  |  |  |  | 

SMILES | MIC (Pseudomonas aeruginosa [1]) [µg/mL] | MIC (Escherichia coli [2]) [µg/mL] | MIC (Bacillus subtilis) [µg/mL] | MHC [3] [µg/mL] | MIC (Staphylococcus aureus [4]) [µg/mL] | MIC (Enterococcus faecalis [5]) [µg/mL] | MIC (Enterococcus faecalis [6]) [µg/mL] | MIC (Pseudomonas aeruginosa [7]) [µg/mL] | MIC (Pseudomonas aeruginosa [8]) [µg/mL] | MIC (Escherichia coli [9]) [µg/mL] | MIC (Pseudomonas aeruginosa [10]) [µg/mL] | MIC (Pseudomonas aeruginosa [11]) [µg/mL] | MIC (Staphylococcus aureus [12]) [µg/mL] | MIC (Pseudomonas aeruginosa [13]) [µg/mL]
CC[C@H](C)[C@H](N)C(=O)NCCCC[C@H](NC(=O)[C@@H](N)[C@@H](C)CC)C(=O)N[C@@H](Cc1ccccc1)C(=O)NCCCC[C@H](NC(=O)[C@H](Cc1ccccc1)NC(=O)[C@H](CCCCNC(=O)[C@@H](N)[C@@H](C)CC)NC(=O)[C@@H](N)[C@@H](C)CC)C(=O)N1CCC[C@H]1C(=O)NCCCC[C@H](NC(=O)[C@@H]1CCCN1C(=O)[C@H](CCCCNC(=O)[C@H](Cc1ccccc1)NC(=O)[C@H](CCCCNC(=O)[C@@H](N)[C@@H](C)CC)NC(=O)[C@@H](N)[C@@H](C)CC)NC(=O)[C@H](Cc1ccccc1)NC(=O)[C@H](CCCCNC(=O)[C@@H](N)[C@@H](C)CC)NC(=O)[C@@H](N)[C@@H](C)CC)C(=O)N[C@@H](CCCCN)C(N)=O (I: H-IK(Ile)FK([Phe-X2])PKK-NH2 / II: H-IK(Ile)FK([Phe-X2])P; amide I:6-II:C) | 61 (≈ 22.3 µM) | 18 (≈ 6.59 µM) | 2.5 (≈ 0.916 µM) | > 10000 | > 32 | > 32 | > 32 | > 32 | > 32 | > 32 | > 32 | > 32 | > 32 | > 32

Reference: ChEMBL document CHEMBL3217499, “Membrane disrupting antimicrobial peptide dendrimers with multiple amino termini” (Medchemcomm, 2012)
